Values quoted from earlier work, collected in patent publication US20230175068A1, “PROGNOSIS METHOD OF ACUTE MYELOID LEUKAEMIA” (CENTRE NATIONAL DE LA RECHERCHE SCIENTIFIQUE, priority 2020, published 2023).
Read-outs that look alike come from different tables or passages of the source.

Test system: AML cell lines

O=C(c1cc(Cc2n[nH]c(=O)c3ccccc23)ccc1F)N1CCN(C(=O)C2CC2)CC1 [Olaparib]
T-Statistic (Drug sensitivity AUC (Sanger GDSC1)): -3.795

O=C1NC(=O)c2c1c(-c1ccccc1Cl)cc1[nH]c3ccc(O)cc3c21 [Wee1 Inhibitor]
T-Statistic (Drug sensitivity AUC (Sanger GDSC2)): -4.966
